{
  "source": "patent US4618687A",
  "about": "“Cyclopentenone compound and process for production thereof” (Kyowa Hakko Kogyo Co., Ltd., priority 1984, dated 1986)",
  "system": "HeLa S3 cells",
  "assay": "Growth inhibitory effect on HeLa cells",
  "type": "cell-based",
  "settings": "96 h; for Cell count, average ± standard deviation: three runs, control 732 ± 24",
  "method": "Growth inhibitory effect on HeLa cells\nCultured HeLa S3 cells are suspended in an MEM medium (containing 10% bovine fetus serum and 6 mg/100 ml kanamycin) at a concentration of 5×10^4 cells/ml, 1 ml each of the cell suspension is pipetted in 24-hole multi-dishes, and the cells are cultured in a carbon dioxide cultivator with 5% CO2 at 37° C. for 24 hours. Then, 0.1 ml each of drug solutions prepared at predetermined concentrations are added to each dish. Then, the cells are further cultured in the carbon dioxide cultivator for 96 hours. After the culturing, the culture liquor is removed from the dishes, and then 1 ml of PBS [physiological saline solution containing a phosphate buffer (pH 7.2)]is added to the dishes to gently wash the cell surfaces. Then, PBS is removed from the dishes. Then, 1 ml of PBS containing 0.05% trypsin and 0.02% EDTA is added to each dish. The dishes are left standing at room temperature for about 15 minutes. Adhered cells are peeled off, and 0.5 ml of the cell suspension is added to 10 ml of an isotonic solution. Cells are counted by a microcell counter to determine inhibition percent (%) against cell propagation of groups treated with the drug on the basis of the cell count of the control group. Linear expression showing a relationship between the concentration and the inhibition percent are obtained from the inhibition percent of the drug against the cell propagation at the respective concentration according to the least-squares method, and then the drug concentrations IC50 showing a 50% inhibition against the cell propagation are obtained from the linear expression.",
  "data": [
    {"smiles": "O=C1C=CC2COC(O)CC12", "note": "(stereo not drawn) [compound (I), 4-hydroxy-3-oxabicyclo [4.3.0]nona-8-en-7-on]", "values": [
      {"measurement": "Cell count, average ± standard deviation", "setting": "1 μg/ml", "result": "697 ± 58 × 10^3 cells/ml"},
      {"measurement": "Cell count, average ± standard deviation", "setting": "3 μg/ml", "result": "784 ± 42 × 10^3 cells/ml"},
      {"measurement": "Cell count, average ± standard deviation", "setting": "5 μg/ml", "result": "454 ± 21 × 10^3 cells/ml"},
      {"measurement": "Cell count, average ± standard deviation", "setting": "10 μg/ml", "result": "7.1 ± 2.1 × 10^3 cells/ml"},
      {"measurement": "inhibition at 1 µg/mL", "setting": "Homo sapiens, HeLa S3, 1 μg/ml, read-out: Inhibition percent against cell propagation", "result": 4.8, "unit": "%"},
      {"measurement": "inhibition at 3 µg/mL", "setting": "Homo sapiens, HeLa S3, 3 μg/ml, read-out: Inhibition percent against cell propagation", "result": -7, "unit": "%"},
      {"measurement": "inhibition at 5 µg/mL", "setting": "Homo sapiens, HeLa S3, 5 μg/ml, read-out: Inhibition percent against cell propagation", "result": 38, "unit": "%"},
      {"measurement": "inhibition at 10 µg/mL", "setting": "Homo sapiens, HeLa S3, 10 μg/ml, read-out: Inhibition percent against cell propagation", "result": 99, "unit": "%"},
      {"measurement": "IC50", "setting": "Homo sapiens, HeLa S3, 50% inhibition against cell propagation, linear least-squares", "result": 5.73, "unit": "µg/mL"}
    ]}
  ]
}
